The record followed here is PubChem BioAssay (NCI).

The structures appear in SMILES notation.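 Where inhibition never reached the appropriate level, the endpoint shown equals the highest concentration tested. Otherwise, values were interpolated linearly from a five-concentration, 48-hour dose response in 96-well plates. The concentration for 50% growth inhibition is given as GI50. TGI marks complete inhibition of growth.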 Bounds are passed on as bounds.

Test systems include NCI/ADR-RES ovarian; MDA-MB-231 breast; HCC-2998 colon; OVCAR-5 ovarian; IGROV1 ovarian; EKVX NSCLC; OVCAR-3 ovarian; SF-539 CNS; SK-MEL-2 melanoma; HL-60(TB) leukemia.
Common to all, as to assay: growth of human tumour cells (NCI), 48 h

Consider `CC1(C)CC(O)CCCCCCOc2c(CN)cccc2NC(=O)c2nc(cnc2N)-c2ccc(cc2)S1(=O)=O` (stereo unspecified), for which the GI50 in the experiment with NCI/ADR-RES ovarian is 2.83 µM; in the experiment on MDA-MB-231 breast, 1.85 µM; in the experiment on HCC-2998 colon, 2.01 µM; in the experiment with OVCAR-5 ovarian, 2.81 µM; with IGROV1 ovarian it was 0.148 µM; in the experiment with EKVX NSCLC, 1.93 µM. In addition, the values for the GI50 in the experiment with OVCAR-3 ovarian, in the experiment on SF-539 CNS and with SK-MEL-2 melanoma were 0.183 µM, 0.0363 µM and 1.36 µM, respectively. For the same molecule, the TGI in the experiment on NCI/ADR-RES ovarian turned out to be 13.4 µM; in the experiment with MDA-MB-231 breast, 4.48 µM; in the experiment with HCC-2998 colon it was 4.24 µM; with OVCAR-5 ovarian, 6.34 µM; in the experiment with IGROV1 ovarian, 1.48 µM; with EKVX NSCLC, 5.78 µM. The TGI amounted to 3.34 µM in the experiment with OVCAR-3 ovarian, 1.73 µM with SF-539 CNS and 3.15 µM in the experiment with SK-MEL-2 melanoma.
As to `CCC(C)c1cnc(CC(C)C)c(=O)[nH]1` (stereo unspecified), the TGI in the experiment on MDA-MB-231 breast, with HCC-2998 colon, with OVCAR-5 ovarian, in the experiment on IGROV1 ovarian, in the experiment with EKVX NSCLC and with OVCAR-3 ovarian was > 100 µM throughout. For the same molecule, the TGI with SK-MEL-2 melanoma was > 100 µM.
On to `CC1CCC(C#N)(NOC2=NCCN2)CC1` (stereo unspecified), for which the GI50 with NCI/ADR-RES ovarian was > 100 µM; in the experiment on MDA-MB-231 breast, 54.9 µM; in the experiment with OVCAR-5 ovarian, > 100 µM; in the experiment on IGROV1 ovarian it was 41.7 µM; in the experiment on EKVX NSCLC it was 36.1 µM; with OVCAR-3 ovarian it was 28.9 µM. Moreover, the GI50 was 34.5 µM in the experiment with HL-60(TB) leukemia, 23.4 µM in the experiment on SF-539 CNS and > 100 µM with SK-MEL-2 melanoma. Also, the TGI in the experiment on NCI/ADR-RES ovarian, in the experiment on MDA-MB-231 breast, in the experiment with OVCAR-5 ovarian, with IGROV1 ovarian, with EKVX NSCLC and with OVCAR-3 ovarian was > 100 µM throughout. Further, the TGI in the experiment with HL-60(TB) leukemia was > 100 µM; with SF-539 CNS it was 45.4 µM; in the experiment on SK-MEL-2 melanoma it was > 100 µM.
Regarding `C=C(C)C1CCC2(CO)C(O)CC3(C)C(CCC4C5(C)CCC(O)C(C)(C)C5CCC43C)C12` (stereo unspecified), the TGI with NCI/ADR-RES ovarian was 81.5 µM; with MDA-MB-231 breast, 57.2 µM; with OVCAR-5 ovarian, > 100 µM; in the experiment on IGROV1 ovarian it was 30 µM; with EKVX NSCLC it was 32.6 µM; in the experiment with OVCAR-3 ovarian it was 29.2 µM. For the same molecule, the values for the TGI in the experiment with HL-60(TB) leukemia, in the experiment with SF-539 CNS and in the experiment on SK-MEL-2 melanoma were > 100 µM, 30 µM and 32 µM, respectively.
On to `O=C(O)CCc1nc(-c2ccccc2)c(-c2ccccc2)o1`, for which the TGI with NCI/ADR-RES ovarian, with MDA-MB-231 breast, in the experiment with OVCAR-5 ovarian, in the experiment with IGROV1 ovarian, in the experiment on EKVX NSCLC and in the experiment on OVCAR-3 ovarian was > 100 µM throughout. Further, the TGI with HL-60(TB) leukemia, in the experiment on SF-539 CNS and in the experiment with SK-MEL-2 melanoma was > 100 µM throughout.
Turning to `OCCCCC#Cc1ccccc1C#Cc1cccs1`, the GI50 in the experiment with NCI/ADR-RES ovarian is 17.7 µM; with MDA-MB-231 breast it was 10.6 µM; in the experiment on HCC-2998 colon, 18.3 µM; in the experiment on OVCAR-5 ovarian, 16.1 µM; in the experiment with IGROV1 ovarian, 16.5 µM; in the experiment with EKVX NSCLC, 10.8 µM. Further, the GI50 in the experiment with OVCAR-3 ovarian was 15 µM; in the experiment with SF-539 CNS, 12.9 µM; with SK-MEL-2 melanoma, 19 µM. Further, the TGI in the experiment on NCI/ADR-RES ovarian came to 34.5 µM; in the experiment with MDA-MB-231 breast, 23.3 µM; in the experiment with HCC-2998 colon, 33.7 µM; in the experiment on OVCAR-5 ovarian, 31.7 µM; in the experiment with IGROV1 ovarian, 30.5 µM; in the experiment on EKVX NSCLC, 23.9 µM. Moreover, the TGI in the experiment with OVCAR-3 ovarian amounted to 28.9 µM; with SF-539 CNS, 25.9 µM; in the experiment with SK-MEL-2 melanoma, 37.9 µM.
As to `N#CNc1nc(C(=O)Nc2ccc(Cl)cc2)cc(-c2ccccc2)n1`, the TGI in the experiment on HCC-2998 colon, in the experiment with OVCAR-5 ovarian, in the experiment on IGROV1 ovarian, in the experiment with EKVX NSCLC, in the experiment on OVCAR-3 ovarian and in the experiment with HL-60(TB) leukemia was > 100 µM throughout. For the same molecule, the TGI in the experiment on SF-539 CNS and in the experiment on SK-MEL-2 melanoma was > 100 µM in each case.
With `COc1ccc2nc(C3=CN(C4OC(CO)C(O)C(O)C4O)C4C=CC=CC34)sc2c1` (stereo unspecified), the GI50 is > 100 µM with NCI/ADR-RES ovarian; 23.9 µM in the experiment with MDA-MB-231 breast; 22.7 µM with HCC-2998 colon; 26.8 µM in the experiment on OVCAR-5 ovarian; 13.5 µM in the experiment with IGROV1 ovarian; 39.7 µM in the experiment with EKVX NSCLC. Further, the GI50 is 87.5 µM in the experiment with OVCAR-3 ovarian, 29.3 µM in the experiment on SF-539 CNS and 38.8 µM in the experiment with SK-MEL-2 melanoma. Further, the TGI in the experiment with NCI/ADR-RES ovarian was > 100 µM; in the experiment with MDA-MB-231 breast, 61.6 µM; in the experiment on HCC-2998 colon, 53.1 µM; in the experiment on OVCAR-5 ovarian, 83.2 µM; in the experiment with IGROV1 ovarian it was 34.8 µM; in the experiment on EKVX NSCLC, > 100 µM. For the same molecule, the values for the TGI with OVCAR-3 ovarian, in the experiment with SF-539 CNS and with SK-MEL-2 melanoma were > 100 µM, 77.7 µM and > 100 µM, respectively.
As for `O=C1C(Cl)=C(Nc2ccc3c(c2NC2=C(Cl)C(=O)c4ccccc4C2=O)C(=O)c2ccccc2C3=O)C(=O)c2ccccc21`, the GI50 was 1.67 µM with MDA-MB-231 breast; 3.26 µM in the experiment on HCC-2998 colon; 2.06 µM in the experiment with OVCAR-5 ovarian; 1.62 µM in the experiment on IGROV1 ovarian; 1.83 µM in the experiment on EKVX NSCLC; 1.78 µM with OVCAR-3 ovarian. In addition, the GI50 is 2.36 µM in the experiment with HL-60(TB) leukemia, 2.83 µM with SF-539 CNS and 1.82 µM in the experiment with SK-MEL-2 melanoma. The TGI with MDA-MB-231 breast is 7.87 µM; with HCC-2998 colon, 10.7 µM; with OVCAR-5 ovarian it was 4.4 µM; in the experiment on IGROV1 ovarian it was 4.25 µM; with EKVX NSCLC, 4.18 µM; in the experiment on OVCAR-3 ovarian it was 7.03 µM. The results for the TGI in the experiment on HL-60(TB) leukemia, in the experiment with SF-539 CNS and in the experiment on SK-MEL-2 melanoma were 14 µM, 8.07 µM and 6.33 µM, respectively.
With `O=C(Nc1ccccc1)OCc1nc2c([nH]1)C(=O)C=CC2=O`, the TGI was determined as 30.1 µM in the experiment with HCC-2998 colon; 36.8 µM with OVCAR-5 ovarian; 30.7 µM in the experiment with IGROV1 ovarian; 41 µM in the experiment with EKVX NSCLC; 30.8 µM in the experiment with OVCAR-3 ovarian; 15.2 µM in the experiment with HL-60(TB) leukemia. Also, the TGI is > 100 µM in the experiment with SF-539 CNS and 34.2 µM with SK-MEL-2 melanoma.
